Bridge positions count the residues as written; N and C are the ends. Peptide text beside a SMILES is read from it.
Assays:
[1] = system: bowel habits; experiment: seven-day oral dosing study of bowel habits in humans; format: in vivo
Description: Seven daily doses of 30, 100, 300, or 1000 μg of chemically synthesized SEQ ID NO:3 were given to 48 healthy subjects. SEQ ID NO:3 or placebo (vehicle) was administered orally in 5.0 mL 50 mM phosphate buffer (pH 6.0) plus 3×20 mL water rinses and 175 mL water after at least a 10-hour fast. In each dosing group, 8 subjects were randomized to receive SEQ ID NO:3 and 4 subjects were randomized to receive placebo. […] The Mean Ease of Passage (FIG. 15d) of stools was tested for subjects treated with 30-1000 μg SEQ ID NO:3.

[2] = system: response to colorectal distension; experiment: partial restraint stress-induced hyperalgesia model; format: in vivo, Wistar rats; conditions: oral 0.3 and 3.0 μg/kg; distending pressure 15 mm Hg; p<0.0001
Description: Five groups of female Wistar rats (weighing 200-250 g each), were surgically prepared for electromyography as described (Morteau et al. 1994 Dig Dis Sci 39:1239-48) and were used to evaluate the effects of SEQ ID NO:3 on colorectal sensitivity and compliance after a 2 hour partial restraint stress session. Partial restraint stress (PRS), a relatively mild stress, was induced as previously described (Morteau et al., 1994 Dig Dis Sci 39:1239-48). Female rats were lightly anesthetized with diethyl ether and their shoulders, upper forelimbs and thoracic trunk were wrapped in a confining harness of paper tape to restrict, but not prevent body movements. Control sham-stress animals were anesthitized but not wrapped. […] Electrical activity was recorded with an electroencephalograph (Mini VIII, Alvar, Paris, France) using a short time constant (0.03 sec.) to remove low-frequency signals (<3 Hz) and a paper speed of 3.6 cm/minute. […] Colonic pressure and balloon volume were continuously monitored on a potentiometric recorder (L6514, Linseis, Selb, Germany) with a paper speed of 1.0 cm/minute. The number of spike bursts, corresponding to abdominal contractions, was evaluated per 5-minute period. Colorectal volumes were determined as the maximal volume obtained for each stage of distension using the potentiometric recorder. […] The values were expressed as mean±SEM.

[3] = system: visceromotor response to colorectal distension; experiment: water avoidance stress-induced hyperalgesia model and basal visceral nociception; format: in vivo, Wistar rats
Description: The effect of SEQ ID NO:3 on basal visceral nociception in a model of water avoidance stress-induced visceral hyperalgesia in adult male Wistar rats was tested. The stress involved confining rats to a platform surrounded by water for a period of 1 hour and then measuring their visceromotor response to colonic distension using electromyography (EMG).
Electrode leads were then tunneled subcutaneously and externalized laterally for future access. Following surgery, rats were housed in pairs and allowed to recover for at least 7 days. On the day of the experiment, animals were lightly anesthetized with halothane, and a lubricated latex balloon (6 cm) was inserted intra-anally into the descending colon. Animals were allowed to recover for 30 minutes, and colorectal distension (CRD) was initiated. The CRD procedure consisted of graded intensities of phasic CRD (10, 20, 40, 60 mmHg; 20 s duration; 4 min inter-stimulus interval). Visceromotor response (VMR) to CRD was quantified by measuring EMG activity. […] Animals were allowed 1 hour recovery and then SEQ ID NO:3 or vehicle was orally administered. At 1 hour following administration of SEQ ID NO:3 or vehicle CRD was repeated. […] The mean value (+/−SEM) of in vehicle and SEQ ID NO:3 treated groups (n=7 for each group) is graphically depicted in FIG. 7e.
To determine the effect of SEQ ID NO:3 in a model of water avoidance stress-induced visceral hyperalgesia, a baseline CRD was recorded and then the animals were subjected to 1 hour of water avoidance stress. For water avoidance stress, the test apparatus consisted of a Plexiglas tank with a block affixed to the center of the floor. The tank was filled with fresh room temperature water (25° C.) to within 1 cm of the top of the block. The animals were placed on the block for a period of 1 h. The sham water avoidance stress consisted in placing the rats on the same platform in a waterless container. A second CRD was performed at 24 hours post water avoidance stress. Following the second CRD, animals were allowed 1 hour recovery and then SEQ ID NO:3 or vehicle was orally administered. […]

Structure (SMILES): C[C@@H]1NC(=O)[C@@H]2CCCN2C(=O)[C@H](CC(N)=O)NC(=O)[C@@H]2CSSC[C@H](N)C(=O)N[C@H]3CSSC[C@H](NC1=O)C(=O)N[C@@H]([C@@H](C)O)C(=O)NCC(=O)N[C@H](C(=O)N[C@@H](Cc1ccc(O)cc1)C(=O)O)CSSC[C@H](NC(=O)[C@H](Cc1ccc(O)cc1)NC(=O)[C@H](CCC(=O)O)NC3=O)C(=O)N2 [SEQ ID NO:3] (H-CCEYCCNPACTGCY-OH; disulfide 1-6, 2-10, 5-13; N-terminus and C-terminus assumed)
- Mean Ease of Passage of stools, baseline versus treatment, versus placebo ([1]; 1000 μg dose group): greatest difference in baseline versus treatment values
- Mean Stool Weight ([1]; seven daily oral doses 30-1000 μg, higher doses): increase in Mean Stool Weight
- Mean Stool Frequency (stools per week) ([1]; seven daily oral doses 30-1000 μg, higher doses, healthy subjects): increase in Mean Stool Frequency score
- response to CRD after partial restraint stress [2]: reduced the response to CRD
- basal visceral nociception ([3]; oral 3 μg/kg): had no effects
- visceromotor response to CRD 24 hours after water avoidance stress ([3]; oral 3 μg/kg): exhibited anti-hyperalgesic properties
- basal visceral nociception versus vehicle ([3]; oral 30 μg/kg): increased basal visceral nociception

— US20090253634A1, “Methods and Compositions for the Treatment of Gastrointestinal Disorders” (MICROBIA, INC., priority 2005, published 2009)
